The conditions of data set [1]: Crystal; DSC.
Data set [2] can be described thus: Molar enthalpy of transition or fusion. Conditions: Crystal; DSC.

Molecules are shown by their SMILES. Numbers after ± are expanded uncertainties.

As to `N#CCc1ccccc1[N+](=O)[O-]` [o-nitrophenylacetonitrile], the Triple point temperature in data set [1] turned out to be 351.59 ± 1.2 K. For the same compound, the “Molar enthalpy of transition or fusion” value in data set [2] came out at 14.2 ± 0.92 kJ/mol.

The record behind these values is the NIST ThermoML archive (doi:10.1021/acs.jced.9b00243).
